The data set is described as follows: Photochromic properties of spiropyran compounds in methyl polymethacrylate film. Particulars: for ε (60 sec.) -ε (0 sec.): absorbancy at max. absorption wavelength, irradiated 60 seconds minus not irradiated; for ε (60 sec.) -ε (0 sec.) / Developed color tone: 25° C.; for λ MAX (max. absorption wavelength): color-developing film, spectrophotometer 220A; for Developed color tone: film 1.0×10^-4 mol/g, 0.1 mm thick, mercury lamp, 10 cm, 60 seconds; for t1/2 (half-value period): time until absorbancy decreases to one-half {ε(60 sec)-ε(0 sec)} after irradiation for 60 seconds. Format: physicochemical. The method, then:
The concentration of the above compound contained in the film was adjusted to be 1.0×10^-4 mol/g and the thickness was adjusted to be 0.1 mm. The photochromic film was exposed to the light of a mercury lamp SHL-100 produced by Toshiba Co. at a temperature of 25° C.+1° C. from a distance of 10 cm for 60 seconds so as to develop a color, in order to measure its photochromic properties. The photochromic properties were expressed as described below.
Max. absorption wavelength (λmax)
λmax of the color-developing film was found by using a spectrophotometer 220A manufactured by Hitachi, Ltd.
Absorbancy of the film at a maximum absorption wavelength after irradiated with light for 60 seconds under the above-mentioned conditions.
Absorbancy of the film that is not irradiated with light at a maximum absorption wave of when it is irradiated with light.
Time needed until the absorbancy of the film decreases to one-half {ε(60 sec)-ε(0 sec)} after irradiated with light for 60 seconds.

On to `CC1(C)CCC2(C)CC=CC1C21C=C(c2ccccc2)c2cccnc2O1` (stereo not shown) [compound 30], for which the “ε (60 sec.) -ε (0 sec.)” value is reported as 0.6, the “λ MAX (max. absorption wavelength)” value is 480 nm, the Developed color tone result is recorded as “orange” and the “t1/2 (half-value period)” value was 26 s.
Turning to `CCCCC1=CC2(Oc3c(C#N)cccc31)C1C=CCC2CCC1` (stereo not shown) [compound 29, 8'-Cyano-4'-n-butylspiro(2-bicyclo(3,3,1)nonene-9,2'-(2H)chromene)], the “ε (60 sec.) -ε (0 sec.)” value was determined as 0.5, the “λ MAX (max. absorption wavelength)” value came out at 494 nm, the Developed color tone result is recorded as “orange” and the “t1/2 (half-value period)” value stood at 11 s.
In the same order, the values of `ClC12CC=CC(CCC1)C21C=C(Cc2ccccc2)c2c(cnc3ccccc23)O1` (stereo not shown) [compound 28, 5-Chloro-4'-benzylspiro(2-bicyclo(3,3,1)nonene-9,2'-(2H)quino(3,4-b)pyran)] are 0.9, 402 nm, “yellow” and 16 s.
As to `CC(C)C1=Cc2c(ccc3ccccc23)OC12C1C=CCC2CCC1` (stereo not shown) [compound 35, 3'-i-Propylspiro(2-bicyclo[3,3,1]nonene-9,2'-(2H)benzo(f)chromene)], the “ε (60 sec.) -ε (0 sec.)” value is recorded as 0.6, the “λ MAX (max. absorption wavelength)” value stood at 410 nm, the Developed color tone entry is “yellow” and the “t1/2 (half-value period)” value was 18 s.
For `CCCC1=C(Cc2ccccc2)c2c(ccc3ccccc23)OC12C1C=CCC2CCC1` (stereo not shown) [compound 40, 3'-n-Propyl-4'-benzylspiro(2-bicyclo[3,3,1]nonene-9,2'-(2H)benzo(f)chromene)], the “ε (60 sec.) -ε (0 sec.)” value was 0.8, the “λ MAX (max. absorption wavelength)” value is listed as 420 nm, the Developed color tone result is “yellow” and the “t1/2 (half-value period)” value came to 14 s.
With `C1=CC2CCCC(C1)C21Oc2ccc3ccccc3c2C(c2ccccc2)=C1CCc1ccccc1` (stereo not shown) [compound 41, 3'-Benzylmethyl-4'-phenylspiro(2-bicyclo[3,3,1]nonene-9,2'-(2H)benzo(f)chromene)], the “ε (60 sec.) -ε (0 sec.)” value is reported as 0.7, the “λ MAX (max. absorption wavelength)” value was found to be 440 nm, the Developed color tone entry was “yellow” and the “t1/2 (half-value period)” value came out at 17 s.
Regarding `CCCC1=Cc2c(ccc3ccccc23)OC12C1C=CCC2CCC1` (stereo not shown) [compound 33, 3'-n-Propylspiro(2-bicyclo[3,3,1]nonene-9,2'-(2H)benzo(f)chromene)], the “ε (60 sec.) -ε (0 sec.)” value is listed as 0.6, the “λ MAX (max. absorption wavelength)” value was 410 nm, the Developed color tone entry is recorded as “yellow” and the “t1/2 (half-value period)” value was found to be 18 s.
Taken in the same sequence, the figures for `COc1ccc(C2=Cc3c(ccc4ccccc34)OC23C2C=CCC3CCC2)cc1` (stereo not shown) [compound 36, 3'-p-methoxyphenylspiro(2-bicyclo[3,3,1]nonene-9,2'-(2H)benzo(f)chromene)] were 0.9, 420 nm, “yellow” and 25 s.
As to `CCC1=Cc2c(cnc3ccccc23)OC12C1C=CCC2CCC1` (stereo not shown) [compound 37, 3'-Ethylspiro(2-bicyclo[3,3,1]nonene-9,2'-(2H)quino(3,4-b)pyran)], the “ε (60 sec.) -ε (0 sec.)” value was found to be 0.5, the “λ MAX (max. absorption wavelength)” value is 415 nm, the Developed color tone entry is given as “yellow” and the “t1/2 (half-value period)” value turned out to be 22 s.
Consider `CCC1=C(CC)C2(Oc3c1ccc1ccccc31)C1C=CCC2CCC1` (stereo not shown) [compound 42, 3',4'-Diethylspiro(2-bicyclo[3,3,1]nonene-9,2'-(2H)benzo(h)chromene)], for which the “ε (60 sec.) -ε (0 sec.)” value is 1.0, the “λ MAX (max. absorption wavelength)” value was 450 nm, the Developed color tone entry is “yellow” and the “t1/2 (half-value period)” value was 28 s.
As for “3',4'-Dimethylspiro(2-bicyclo[3,3,1]nonene-9,2'-(2H)fluoro(2,3-b)pyran) [compound 38]”, the “ε (60 sec.) -ε (0 sec.)” value is reported as 0.6, the “λ MAX (max. absorption wavelength)” value was 430 nm, the Developed color tone entry is “yellow” and the “t1/2 (half-value period)” value is 10 s.
Regarding `CCCCC1=CC2(Oc3c1ccc1ccccc31)C1C=CCC2CCC1` (stereo not shown) [compound 32, 4'-n-Butylspiro(2-bicyclo[3,3,1]nonene-9,2'-(2H)benzo(h)chromene)], the “ε (60 sec.) -ε (0 sec.)” value came out at 0.8, the “λ MAX (max. absorption wavelength)” value came out at 445 nm, the Developed color tone result is reported as “yellow” and the “t1/2 (half-value period)” value is 110 s.
Take `C1=CC2CCCC(C1)C21Oc2ccc3ccccc3c2C=C1CCc1ccccc1` (stereo not shown) [compound 34, 3'-Benzylmethylspiro(2-bicyclo[3,3,1]nonene-9,2'-(2H)benzo(f)chromene)]: the “ε (60 sec.) -ε (0 sec.)” value is 0.7, the “λ MAX (max. absorption wavelength)” value came out at 406 nm, the Developed color tone result was “yellow” and the “t1/2 (half-value period)” value is 26 s.
As to `CCC1=C(Cc2ccccc2)C2(Oc3scc(Br)c31)C1C=CCC2CCC1` (stereo not shown) [compound 39, 4'-Ethyl-3'-benzyl-5'-bromospiro(2-bicyclo[3,3,1]nonene-9,2'-(2H)thieno(2,3-b)pyran)], the “ε (60 sec.) -ε (0 sec.)” value is 0.6, the “λ MAX (max. absorption wavelength)” value stood at 465 nm, the Developed color tone entry is “orange” and the “t1/2 (half-value period)” value worked out at 12 s.
Taken in the same sequence, the figures for `CCCC12CC=CC(CCC1)C21C=C(CC)c2ccc3c(-c4ccccc4)cccc3c2O1` (stereo not shown) [compound 31, 7'-Phenyl-4'-ethyl-5-n-propylspiro(2-bicyclo[3,3,1]nonene-9,2'-(2H)benzo(h)chromene)] were 0.7, 460 nm, “yellow” and 90 s.
Take “Spiro(2-bicyclo(3,3,1)nonene-9,2'-(2H)methylpyrrolo(2,3-b)pyran) [compound 27]”: the “ε (60 sec.) -ε (0 sec.)” value was found to be 1.0, the “λ MAX (max. absorption wavelength)” value is 470 nm, the Developed color tone result is recorded as “orange” and the “t1/2 (half-value period)” value came to 48 s.

Source of the values: patent US5693830A, “Process for preparing the spiropyrone compounds” (Tokuyama Corporation, priority 1994, dated 1997).
